In US7491728B2, “Pyrimidinone compounds as calcilytics” (SmithKline Beecham Corp., priority 2004, dated 2009):

Assay: Bolus i.v. injection in normal conscious rats: plasma PTH and ionized calcium levels
Format: in vivo, male Sprague-Dawley rats
Method: FIG. 1 is a graph which depicts the effect of bolus i.v. injection of the compound of Example 9 on plasma PTH levels in normal rats.
5-Ethyl-3-[2-(2-fluoro-phenyl)-ethyl]-2-(2-hydroxy-phenyl)-6-methyl-3H-pyrimidin-4-one (1 or 3 μmol/kg) or vehicle was administered by intravenous injection over about 15 seconds to normal conscious male Sprague-Dawley rats with chronic indwelling arterial and venous catheters. Arterial blood samples were collected at 30 min and immediately before, and at 1, 5, 10, and 30 min after the start of the injection for measurement of the levels of parathyroid hormone (PTH) and ionized calcium (Ca^2+) in plasma. PTH was measured using a specific rat PTH (1-84) ELISA (Immutopics, San Clemente, Calif.). […] Plasma PTH levels had returned to pre-dose levels by 10 min after the injection (FIG. 1).

CCc1c(C)nc(-c2ccccc2O)n(CCc2ccccc2F)c1=O [Example 9, 5-Ethyl-3-[2-(2-fluoro-phenyl)-ethyl]-2-(2-hydroxy-phenyl)-6-methyl-3H-pyrimidin-4-one]
effect on plasma PTH levels (1 or 3 μmol/kg i.v. over about 15 seconds, normal conscious male Sprague-Dawley rats, rat PTH (1-84) ELISA, FIG. 1): rapid, but transient dose-related increase | time after injection at which plasma PTH levels were maximal (1 or 3 μmol/kg i.v., rats): 1 min | time after injection by which plasma PTH levels had returned to pre-dose levels (1 or 3 μmol/kg i.v., rats): ≤ 10 min | changes in plasma Ca2+ levels (1 or 3 μmol/kg i.v., rats, samples up to 30 min after injection (not shown)): no consistent changes
